Test results: publication PMC7288559 (ACS Omega, 2020)

What was measured:
recombinant human LDHA = recombinant human LDHA (Homo sapiens, UniProt P00338); assay: LDHA enzymatic assay based on NADH cofactor consumption [NAD; type: biochemical; settings: in vitro, dose-dependent
[1] = tested on: hepatocellular carcinoma cells Snu-398; type: cell-based; settings: lactate in supernatant
[2] = tested on: pancreatic carcinoma cells MIA PaCa-2; type: cell-based; settings: lactate in supernatant

SMILES | Inhibition of lactate production by recombinant human LDHA (recombinant human LDHA) | Inhibition of lactate production in cells [1] | Inhibition of lactate production in cells [2]
O=C(O)c1ccc(CN2C(=O)c3cccc(NC(=O)c4ccc(Cl)s4)c3C2=O)cc1 [Compound 3, 4-[(4-{[(5-chloro-2-thienyl)carbonyl]amino}-1,3-dioxo-1,3-dihydro-2H-isoindol-2-yl)methyl]benzoic acid] | completely inhibited | neither 3 nor 7 showed inhibition | neither 3 nor 7 showed inhibition
O=C(Nc1cccc(NS(=O)(=O)c2ccc3oc4cc([N+](=O)[O-])ccc4c3c2)c1)C1(O)CC1 [Compound 7, 1-hydroxy-N-(3-{[(7-nitrodibenzo[b,d]furan-2-yl)sulfonyl]amino}phenyl)cyclopropanecarboxamide] | completely inhibited | neither 3 nor 7 showed inhibition | neither 3 nor 7 showed inhibition
